Source: publication PMC7985297 (Communications Biology, 2021)
Values joined by “and” are separate entries in the source; they are usually repeats but may differ in a detail not shown here. Identical values can stand only once.

Tests used:
DU145 cells = assay: BrdU incorporation assay, DU145; format: cell-based, human; settings: − R1881; ENZ 10 µM, EPI-002 25 µM, JUG 20 µM, ATRA 10 µM
Procedure: (§1) Cells were treated with the inhibitors and stimulated with 1 nM of R1881 (+) or vehicle (−) for 24 to 72 h. Each data point represents the average from an independent experiment where the error bars show the mean ± s.e.m.
(§2) BrdU incorporation was determined with the colorimetric BrdU ELISA kit (Roche Diagnostics), according to the manufacturer’s protocol. In brief, cells were seeded in 96-well plates (LNCaP, 5000/well; LN95, 8000/well; PC-3 and DU145, 4000/wells) in media with reduced serum (0.5–1%). On the following day, cells were pre-treated with test compounds for 1 h and then incubated with 0.1 nM of R1881. After the indicated incubation times, cells were labeled with 10 μM of BrdU for 2 h and then fixed for the assay.

AR-V7 = AR-V7 (Homo sapiens, UniProt P10275); assay: Transcriptional reporter assay for AR-V7 (V7BS3-luciferase) in LNCaP cells; settings: enzalutamide 10 µM, EPI-002 25 µM, juglone 20 µM, ATRA 10 µM, 24 h
Sequence of AR-V7 (P10275 1-644 isoform P10275-3): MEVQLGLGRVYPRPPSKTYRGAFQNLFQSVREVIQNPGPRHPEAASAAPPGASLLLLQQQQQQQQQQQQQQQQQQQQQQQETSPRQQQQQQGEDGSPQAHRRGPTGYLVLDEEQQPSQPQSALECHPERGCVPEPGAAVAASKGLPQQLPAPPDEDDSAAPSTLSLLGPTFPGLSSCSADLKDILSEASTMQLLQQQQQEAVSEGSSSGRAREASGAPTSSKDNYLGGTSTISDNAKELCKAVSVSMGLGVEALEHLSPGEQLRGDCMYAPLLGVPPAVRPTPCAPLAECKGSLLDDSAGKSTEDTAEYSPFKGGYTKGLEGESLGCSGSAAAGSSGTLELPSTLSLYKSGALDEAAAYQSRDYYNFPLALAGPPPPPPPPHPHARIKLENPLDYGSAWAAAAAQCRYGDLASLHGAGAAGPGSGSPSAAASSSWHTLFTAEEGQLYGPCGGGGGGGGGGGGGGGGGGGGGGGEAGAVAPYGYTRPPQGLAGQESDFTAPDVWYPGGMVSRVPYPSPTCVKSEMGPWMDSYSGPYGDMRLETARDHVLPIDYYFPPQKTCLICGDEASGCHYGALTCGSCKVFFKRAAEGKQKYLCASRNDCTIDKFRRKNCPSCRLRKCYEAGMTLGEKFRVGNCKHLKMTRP

[1] = target: T1, human AR NTD (AR1–558) fused to Gal4DBD (Gal4-ARN) (Homo sapiens, UniProt P10275); assay: AR NTD transactivation assay (Gal4-ARN) in LNCaP cells; format: cell-based; settings: EPI-002 25 μM, juglone 20 μM, ATRA 10 μM, 24 h
T1 construct: construct encoding the human AR1–558 of the NTD fused to a Gal4DBD (Gal4-ARN); expressed in transfected cells; host or cells: LNCaP
T1 sequence (P10275 1-558): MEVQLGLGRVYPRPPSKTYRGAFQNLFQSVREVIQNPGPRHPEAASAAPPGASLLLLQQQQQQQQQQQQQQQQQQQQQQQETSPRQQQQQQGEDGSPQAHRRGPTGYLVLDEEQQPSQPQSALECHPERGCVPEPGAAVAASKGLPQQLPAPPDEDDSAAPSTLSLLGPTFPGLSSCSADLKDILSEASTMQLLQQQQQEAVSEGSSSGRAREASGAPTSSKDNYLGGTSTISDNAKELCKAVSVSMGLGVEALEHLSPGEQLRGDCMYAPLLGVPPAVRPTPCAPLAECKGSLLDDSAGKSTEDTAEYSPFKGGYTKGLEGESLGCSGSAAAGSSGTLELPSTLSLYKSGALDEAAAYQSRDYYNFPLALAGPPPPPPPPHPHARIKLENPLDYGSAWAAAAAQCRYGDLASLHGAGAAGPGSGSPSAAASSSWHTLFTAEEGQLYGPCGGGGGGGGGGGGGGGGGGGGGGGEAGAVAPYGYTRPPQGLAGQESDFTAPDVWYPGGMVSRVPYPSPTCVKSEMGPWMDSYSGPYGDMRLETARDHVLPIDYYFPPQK
Source text: The remaining putative Pin1-binding sites are within the intrinsically disordered AR NTD that contains transcription activation units, Tau-1 and Tau-5, to mediate androgen-dependent and androgen-independent transactivation, respectively[5],[30]. The loss of AR-LBD shifts the location of transcriptional activity from Tau-1 with androgen, to Tau-5 in the absence of LBD[30].
Error bars show the mean ± s.e.m. *P < 0.05, **P < 0.01, ***P < 0.001; ns not significant.

LN95 cells [2] = assay: BrdU incorporation assay, LN95; format: cell-based, human; settings: ENZ 10 µM, EPI-002 25 µM, JUG 20 µM, ATRA 10 µM
Procedure: as §1, §2

full-length AR = target: T2, full-length AR (Homo sapiens, UniProt P10275, T878A); assay: PSA(6.1 kb)-luciferase AR-driven reporter assay in LNCaP cells; format: cell-based; settings: for fractional response (Fig. 5g): monotherapy or with 5 µM ATRA
T2 construct: Transcriptional activity of full-length AR was assessed in LNCaP cells; endogenous in cells; host or cells: LNCaP
T2 sequence (P10275 1-920 T878A): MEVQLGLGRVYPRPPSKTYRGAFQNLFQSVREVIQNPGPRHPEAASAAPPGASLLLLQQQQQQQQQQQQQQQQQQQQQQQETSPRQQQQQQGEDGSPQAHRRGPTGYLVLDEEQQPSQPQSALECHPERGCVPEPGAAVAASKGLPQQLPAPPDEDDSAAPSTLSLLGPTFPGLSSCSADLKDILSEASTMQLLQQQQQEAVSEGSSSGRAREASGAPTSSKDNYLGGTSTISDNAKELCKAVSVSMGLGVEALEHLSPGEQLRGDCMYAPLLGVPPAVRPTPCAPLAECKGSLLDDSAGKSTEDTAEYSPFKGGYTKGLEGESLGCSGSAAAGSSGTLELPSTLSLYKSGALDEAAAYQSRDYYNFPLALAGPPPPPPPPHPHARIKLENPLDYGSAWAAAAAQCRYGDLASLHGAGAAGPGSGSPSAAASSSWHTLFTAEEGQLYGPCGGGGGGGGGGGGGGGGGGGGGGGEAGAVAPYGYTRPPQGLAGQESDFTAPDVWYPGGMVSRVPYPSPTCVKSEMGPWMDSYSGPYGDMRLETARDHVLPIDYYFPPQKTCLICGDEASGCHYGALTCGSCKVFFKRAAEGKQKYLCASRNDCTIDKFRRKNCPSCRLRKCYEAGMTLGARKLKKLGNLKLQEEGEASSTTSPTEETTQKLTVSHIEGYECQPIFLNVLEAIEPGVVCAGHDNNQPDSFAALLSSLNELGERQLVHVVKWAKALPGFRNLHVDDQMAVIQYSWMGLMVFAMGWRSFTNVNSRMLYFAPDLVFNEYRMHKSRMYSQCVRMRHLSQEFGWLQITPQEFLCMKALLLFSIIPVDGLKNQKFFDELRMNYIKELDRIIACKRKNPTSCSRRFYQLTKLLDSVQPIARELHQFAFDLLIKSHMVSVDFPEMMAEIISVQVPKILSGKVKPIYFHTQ

LN95 cells [3] = assay: Colony formation of LN95 cells; format: cell-based, human; settings: LN95, ATRA 5 or 10 µM, EPI-002 25 µM, treated 24 hours then re-plated
Procedure: page 5: Supplementary Figure 5 a b […] (a) Representative images of colonies from LN95 cells after […] EPI-002. After treating with compounds for 24 hours, the media was removed, and 500 -1,000 cells were re-plated in 6-well plates. Colonies were fixed with 4% paraformaldehyde, stained with a 0.1% crystal violet solution, and then imaged. […]

LN95 cells [4] = assay: Senescence-associated β-galactosidase staining, LN95; settings: LN95, ATRA 10 μM, EPI-002 25 μM, 3 days
Procedure: β-galactosidase activity at suboptimal pH (6.0) was used as a marker to detect cellular senescence[42]. Cells were seeded in four-well chamber slides at a density of 8000-10,000 cells. […] Three days later, the media was removed and cells were fixed with 2% formaldehyde/0.2% glutaraldehyde for 10 min at room temperature, washed with PBS, and then incubated with freshly prepared β-Gal staining solution (Cell Signaling) titrated to pH 6.0. Staining was optimal after incubating with the β-Gal solution at 37 °C for 16–18 h. After staining, the slides were washed twice with PBS, once with absolute methanol, and then mounted with 50% glycerol/PBS. The percentage of β-galactosidase-positive cells were counted with ImageJ using the Cell Counter plugin. A total of nine images containing 100–300 cells were scored to determine the percentages of positive cells.

[5] = led to excessive pill burden; cited from earlier work
PC-3 cells = assay: BrdU incorporation assay, PC-3; format: cell-based, human; settings: − R1881; ENZ 10 µM, EPI-002 25 µM, JUG 20 µM, ATRA 10 µM
Procedure: as §1, §2

effect on IL-6-induced transactivation of AR NTD (Gal4-ARN) ([1]; IL-6 50 ng/mL): both blocked
effect on forskolin-induced transactivation of AR NTD (Gal4-ARN) ([1]; forskolin 25 μM): both blocked
inhibition of reporter activity at highest concentration (full-length AR; 40 µM of ralaniten): ~ 98%
fractional response (Fig. 5g) (full-length AR; EPI-002 20 μM): 0.8041 and 0.7145 and 0.7078 and 0.8391
fractional response (Fig. 5g) (full-length AR; EPI-002 40 μM): 0.9915 and 0.9757 and 0.9847 and 0.9439
SMILES: CC(C)(c1ccc(OC[C@H](O)CO)cc1)c1ccc(OC[C@H](O)CCl)cc1 [ralaniten]
BrdU incorporation, DU145 (Fig. 4d) (DU145 cells): 0.692 and 0.859 and 0.62
effect on AR-V7-induced V7BS3-luciferase reporter activity (AR-V7): decreased AR-V7-induced reporter activity
effect on proliferation of LN95 cells (LN95 cells [2]): attenuated the proliferation of LN95 cells
effect on colony formation (LN95 cells [3]): significantly reduced the number of colonies
SA β-gal-positive cells (LN95 cells [4]): 31%
pharmacokinetics in clinical testing [5]: poor pharmacokinetics
BrdU incorporation, PC-3 (Fig. 4c) (PC-3 cells): 0.683 and 1.048 and 0.96 and 1.348
